Target: T1, human TLR9 (Homo sapiens, UniProt Q9NR96)
T1 construct: host or cells: HEK293 (HEK-Blue hTLR9)
T1 sequence (Q9NR96 26-1032): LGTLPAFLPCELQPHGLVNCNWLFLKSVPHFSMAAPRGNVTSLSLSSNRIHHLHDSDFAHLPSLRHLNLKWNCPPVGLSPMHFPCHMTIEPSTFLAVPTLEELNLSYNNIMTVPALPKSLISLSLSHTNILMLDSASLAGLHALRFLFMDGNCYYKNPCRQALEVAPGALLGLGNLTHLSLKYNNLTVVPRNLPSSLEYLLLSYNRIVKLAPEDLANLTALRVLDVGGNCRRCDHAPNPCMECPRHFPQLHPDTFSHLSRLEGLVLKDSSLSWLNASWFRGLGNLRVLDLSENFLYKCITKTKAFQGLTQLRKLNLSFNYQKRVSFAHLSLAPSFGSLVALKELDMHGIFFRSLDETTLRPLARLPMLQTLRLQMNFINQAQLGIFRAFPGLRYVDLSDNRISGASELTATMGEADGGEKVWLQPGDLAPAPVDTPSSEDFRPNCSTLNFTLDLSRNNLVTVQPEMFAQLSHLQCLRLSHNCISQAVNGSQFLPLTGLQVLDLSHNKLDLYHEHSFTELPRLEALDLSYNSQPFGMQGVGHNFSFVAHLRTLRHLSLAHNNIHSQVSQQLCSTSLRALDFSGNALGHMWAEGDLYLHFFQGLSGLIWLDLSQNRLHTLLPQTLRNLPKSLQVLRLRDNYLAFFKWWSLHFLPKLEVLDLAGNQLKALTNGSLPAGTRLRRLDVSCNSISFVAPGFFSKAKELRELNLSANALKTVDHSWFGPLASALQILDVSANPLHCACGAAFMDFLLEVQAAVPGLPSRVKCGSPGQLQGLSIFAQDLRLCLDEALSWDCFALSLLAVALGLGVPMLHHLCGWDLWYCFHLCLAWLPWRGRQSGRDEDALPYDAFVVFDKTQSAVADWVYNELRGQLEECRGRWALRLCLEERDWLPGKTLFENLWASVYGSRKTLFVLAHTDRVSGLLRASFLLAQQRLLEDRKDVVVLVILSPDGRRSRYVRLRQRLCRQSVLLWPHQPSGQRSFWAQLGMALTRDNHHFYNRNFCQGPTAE
Assay: HEK293-Blue-hTLR-9 cells assay
Assay type: cell-based
Details: HEK293-Blue-hTLR9 cells, ODN2006 stimulation, 20 hrs, SEAP reporter; read-out: HEK/hTLR9 IC50
Description: The following tests were carried out in order to determine the activity of the compounds of formula (I) and (Ia) in HEK293-Blue-hTLR-7/8/9 cells assay.
HEK293-Blue-hTLR-9 Cells Assay:
A stable HEK293-Blue-hTLR-9 cell line was purchased from InvivoGen (Cat. #: hkb-htlr9, San Diego, Calif., USA). These cells were originally designed for studying the stimulation of human TLR9 by monitoring the activation of NF-κB. A SEAP (secreted embryonic alkaline phosphatase) reporter gene was placed under the control of the […] minimal promoter fused to five NF-κB and AP-1-binding sites. The SEAP was induced by activating NF-κB and AP-1 via stimulating HEK-Blue hTLR9 cells with TLR9 ligands. Therefore, the reporter expression was declined by TLR9 antagonist under the stimulation of a ligand, such as ODN2006 (Cat. #: tlr1-2006-1, Invivogen, San Diego, Calif., USA), for incubation of 20 hrs. The cell culture supernatant SEAP reporter activity was determined using QUANTI-Blue™ kit (Cat. #: rep-qb1, Invivogen, San Diego, Calif., USA) at a wavelength of 640 nm, a detection medium that turns purple or blue in the presence of alkaline phosphatase.
Then 20 μL of the supernatant from each well was incubated with 180 μL Quanti-blue substrate solution at 37° C. for 2 h and the absorbance was read at 620-655 nm using a spectrophotometer. The signaling pathway that TLR9 activation leads to downstream NF-κB activation has been widely accepted, and therefore similar reporter assay was modified for evaluating TLR9 antagonist.

SMILES | IC50 [µM]
CO[C@@H]1CN(c2ccc(CCN3CCN4[C@@H](C3)CN(c3ccc(C#N)c5ncccc35)C[C@H]4C)nc2)C[C@H]1N [Example 13, 5-[(4R,9aS)-8-[2-[5-[(3R,4R)-3-amino-4-methoxy-pyrrolidin-1-yl]-2-pyridyl]ethyl]-4-methyl-3,4,6,7,9,9a-hexahydro-1H-pyrazino[1,2-a]pyrazin-2-yl]quinoline-8-carbonitrile] | 0.04
N#Cc1ccc(N2CCN3CCN(c4cccc5c4CNC5)CC3C2)c2cccnc12 (stereo not shown) [Example 35, 5-(8-isoindolin-4-yl-3,4,6,7,9,9a-hexahydro-1H-pyrazino[1,2-a]pyrazin-2-yl)quinoline-8-carbonitrile] | 0.098
C[C@@H]1CN(c2ccc(C#N)c3ncccc23)C[C@@H]2CN(CCc3ccc(N4CCNCC4)cc3)CCN21 [Example 7, 5-[(4R,9aS)-4-methyl-8-[2-(4-piperazin-1-ylphenyl)ethyl]-3,4,6,7,9,9a-hexahydro-1H-pyrazino[1,2-a]pyrazin-2-yl]quinoline-8-carbonitrile] | < 0.032
C[C@@H]1CN(c2ccc(C#N)c3ncccc23)C[C@@H]2CN(CCc3ccc(N4CCNCC4)nc3)CCN21 [Example 11, 5-[(4R,9aS)-4-methyl-8-[2-(6-piperazin-1-yl-3-pyridyl)ethyl]-3,4,6,7,9,9a-hexahydro-1H-pyrazino[1,2-a]pyrazin-2-yl]quinoline-8-carbonitrile] | 0.037
CO[C@H]1CN(c2ccc(CCN3CCN4[C@@H](C3)CN(c3ccc(C#N)c5ncccc35)C[C@H]4C)cn2)C[C@H]1N [Example 24, 5-[(4R,9aS)-8-[2-[6-[(3R,4S)-3-amino-4-methoxy-pyrrolidin-1-yl]-3-pyridyl]ethyl]-4-methyl-3,4,6,7,9,9a-hexahydro-1H-pyrazino[1,2-a]pyrazin-2-yl]quinoline-8-carbonitrile] | 0.045
[2H]c1ccc2c(N3C[C@@H]4CN(c5ncc(N6CC7CC(C6)N7)cc5C)CCN4[C@@H](C)C3)ccc(C#N)c2n1 [Example 108, 5-[(4S,9aR)-8-[5-(3,6-diazabicyclo[3.1.1]heptan-3-yl)-3-methyl-2-pyridyl]-4-methyl-3,4,6,7,9,9a-hexahydro-1H-pyrazino[1,2-a]pyrazin-2-yl]-2-deuterio-quinoline-8-carbonitrile] | 0.098
C[C@@H]1CN(c2ccc(C#N)c3ncccc23)C[C@@H]2CN(Cc3cccc(N4CCNCC4)n3)CCN21 [Example 27, 5-[(4R,9aS)-4-methyl-8-[(6-piperazin-1-yl-2-pyridyl)methyl]-3,4,6,7,9,9a-hexahydro-1H-pyrazino[1,2-a]pyrazin-2-yl]quinoline-8-carbonitrile] | 0.049
C[C@@H]1CN(c2ccc(C#N)c3ncccc23)C[C@@H]2CN(Cc3ccc(N4CCCNCC4)nc3)CCN21 [Example 15, 5-[(4R,9aS)-8-[[6-(1,4-diazepan-1-yl)-3-pyridyl]methyl]-4-methyl-3,4,6,7,9,9a-hexahydro-JH-pyrazino[1,2-a]pyrazin-2-yl]quinoline-8-carbonitrile] | 0.041

Second part, the compound after the results:

IC50 [µM] | SMILES
0.116 | CO[C@@H]1CN(c2ccc(CCN3CCN4[C@@H](C3)CN(c3ccc(C#N)n5ncc(F)c35)C[C@H]4C)cc2)C[C@H]1N [Example 66, 4-[(4R,9aS)-8-[2-[4-[(3R,4R)-3-amino-4-methoxy-pyrrolidin-1-yl]phenyl]ethyl]-4-methyl-3,4,6,7,9,9a-hexahydro-1H-pyrazino[1,2-a]pyrazin-2-yl]-3-fluoro-pyrazolo[1,5-a]pyridine-7-carbonitrile]
0.107 | [2H]c1ccc2c(N3C[C@@H]4CN(c5ccc(CN6C[C@@H](N)[C@H](OC)C6)c(C)n5)CCN4[C@@H](C)C3)ccc(C#N)c2n1 [Example 123, 5-[(4S,9aR)-8-[5-[[(3R,4R)-3-amino-4-methoxy-pyrrolidin-1-yl]methyl]-6-methyl-2-pyridyl]-4-methyl-3,4,6,7,9,9a-hexahydro-1H-pyrazino[1,2-a]pyrazin-2-yl]-2-deuterio-quinoline-8-carbonitrile]
0.032 | [2H]c1ccc2c(N3C[C@@H]4CN(CCc5ccc(N6CC7(CN(C)C7)C6)nc5)CCN4[C@H](C)C3)ccc(C#N)c2n1 [Example 64, 5-[(4R,9aS)-4-methyl-8-[2-[6-(6-methyl-2,6-diazaspiro[3.3]heptan-2-yl)-3-pyridyl]ethyl]-3,4,6,7,9,9a-hexahydro-1H-pyrazino[1,2-a]pyrazin-2-yl]-2-deuterio-quinoline-8-carbonitrile]
0.064 | [2H]c1ccc2c(N3C[C@@H]4CN(Cc5ccc6c(c5)CNCC6)CCN4[C@H](C)C3)ccc(C#N)c2n1 [Example 61, 5-[(4R,9aS)-4-methyl-8-(1,2,3,4-tetrahydroisoquinolin-7-ylmethyl)-3,4,6,7,9,9a-hexahydro-1H-pyrazino[1,2-a]pyrazin-2-yl]-2-deuterio-quinoline-8-carbonitrile]
0.083 | CO[C@@H]1CN(c2ccc(CCN3CCN4[C@@H](C3)CN(c3ccc(C#N)n5ncc(F)c35)C[C@H]4C)cn2)C[C@H]1N [Example 67, 4-[(4R,9aS)-8-[2-[6-[(3R,4R)-3-amino-4-methoxy-pyrrolidin-1-yl]-3-pyridyl]ethyl]-4-methyl-3,4,6,7,9,9a-hexahydro-1H-pyrazino[1,2-a]pyrazin-2-yl]-3-fluoro-pyrazolo[1,5-a]pyridine-7-carbonitrile]
0.089 | C[C@@H]1CN(c2ccc(C#N)c3ncccc23)C[C@@H]2CN(Cc3cccc4c3CNC4)CCN21 [Example 72, 5-[(4R,9aS)-8-(isoindolin-4-ylmethyl)-4-methyl-3,4,6,7,9,9a-hexahydro-1H-pyrazino[1,2-a]pyrazin-2-yl]quinoline-8-carbonitrile]
0.051 | C[C@@H]1CN(c2cccc(CCN3CCN4[C@@H](C3)CN(c3ccc(C#N)c5ncccc35)C[C@H]4C)n2)CCN1 [Example 58, 5-[(4R,9aS)-4-methyl-8-[2-[6-[(3R)-3-methylpiperazin-1-yl]-2-pyridyl]ethyl]-3,4,6,7,9,9a-hexahydro-JH-pyrazino[1,2-a]pyrazin-2-yl]quinoline-8-carbonitrile]
0.042 | [2H]c1ccc2c(N3C[C@@H]4CN(c5ccc(CCN6C[C@@H](N)[C@@H](F)C6)nc5)CCN4[C@@H](C)C3)ccc(C#N)c2n1 [Example 117, 5-[(4S,9aR)-8-[6-[2-[(3R,4S)-3-amino-4-fluoro-pyrrolidin-1-yl]ethyl]-3-pyridyl]-4-methyl-3,4,6,7,9,9a-hexahydro-1H-pyrazino[1,2-a]pyrazin-2-yl]-2-deuterio-quinoline-8-carbonitrile]
< 0.032 | C[C@@H]1CN(c2ccc(C#N)c3ncccc23)C[C@@H]2CN(c3ccnc(N4CC(C)(N)C4)c3)CCN21 [Example 56, 5-[(4R,9aS)-8-[2-(3-amino-3-methyl-azetidin-1-yl)-4-pyridyl]-4-methyl-3,4,6,7,9,9a-hexahydro-1H-pyrazino[1,2-a]pyrazin-2-yl]quinoline-8-carbonitrile]
0.079 | C[C@@H]1CN(c2ccc(C#N)c3ncccc23)C[C@@H]2CN(Cc3cccc4c3CNCC4)CCN21 [Example 71, 5-[(4R,9aS)-4-methyl-8-(1,2,3,4-tetrahydroisoquinolin-8-ylmethyl)-3,4,6,7,9,9a-hexahydro-1H-pyrazino[1,2-a]pyrazin-2-yl]quinoline-8-carbonitrile]
0.053 | Cc1nc(N2CCNCC2)ccc1CN1CCN2[C@@H](C1)CN(c1ccc(C#N)c3ncccc13)C[C@H]2C [Example 60, 5-[(4R,9aS)-4-methyl-8-[(2-methyl-6-piperazin-1-yl-3-pyridyl)methyl]-3,4,6,7,9,9a-hexahydro-1H-pyrazino[1,2-a]pyrazin-2-yl]quinoline-8-carbonitrile]
